The record followed here is ChEMBL document CHEMBL3991601, “The target landscape of clinical kinase drugs” (Science, 2017).

By Kd is commonly meant the equilibrium constant for the complex coming apart.

Assay [1] concerns the target Serine/threonine-protein kinase MRCK beta (Homo sapiens, UniProt Q9Y5S2).
Assay [2] addresses Protein-tyrosine kinase 2-beta (Homo sapiens, UniProt Q14289).
Assay [3] has as its target Putative heat shock protein HSP 90-beta 2 (Homo sapiens, UniProt Q58FF8).
The target in assay [4] is Receptor-interacting serine/threonine-protein kinase 3 (Homo sapiens, UniProt Q9Y572).
Receptor-interacting serine/threonine-protein kinase 3, sequence (Q9Y572 whole entry): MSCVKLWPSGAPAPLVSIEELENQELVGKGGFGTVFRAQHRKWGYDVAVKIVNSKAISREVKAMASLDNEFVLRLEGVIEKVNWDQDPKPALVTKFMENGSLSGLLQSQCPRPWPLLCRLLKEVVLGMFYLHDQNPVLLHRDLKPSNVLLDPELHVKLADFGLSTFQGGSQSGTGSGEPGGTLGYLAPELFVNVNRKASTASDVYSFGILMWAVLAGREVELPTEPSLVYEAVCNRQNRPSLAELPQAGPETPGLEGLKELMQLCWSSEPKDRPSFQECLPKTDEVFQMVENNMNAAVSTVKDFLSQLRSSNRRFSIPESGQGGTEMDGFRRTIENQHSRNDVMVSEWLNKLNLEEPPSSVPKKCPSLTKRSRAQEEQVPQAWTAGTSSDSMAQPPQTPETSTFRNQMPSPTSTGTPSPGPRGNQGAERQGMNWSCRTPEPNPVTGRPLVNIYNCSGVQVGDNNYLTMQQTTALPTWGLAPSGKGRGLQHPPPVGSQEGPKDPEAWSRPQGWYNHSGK
The target of assay [5] is T1, Cyclin-G-associated kinase (Homo sapiens, UniProt O14976).
T1 sequence (O14976 whole entry): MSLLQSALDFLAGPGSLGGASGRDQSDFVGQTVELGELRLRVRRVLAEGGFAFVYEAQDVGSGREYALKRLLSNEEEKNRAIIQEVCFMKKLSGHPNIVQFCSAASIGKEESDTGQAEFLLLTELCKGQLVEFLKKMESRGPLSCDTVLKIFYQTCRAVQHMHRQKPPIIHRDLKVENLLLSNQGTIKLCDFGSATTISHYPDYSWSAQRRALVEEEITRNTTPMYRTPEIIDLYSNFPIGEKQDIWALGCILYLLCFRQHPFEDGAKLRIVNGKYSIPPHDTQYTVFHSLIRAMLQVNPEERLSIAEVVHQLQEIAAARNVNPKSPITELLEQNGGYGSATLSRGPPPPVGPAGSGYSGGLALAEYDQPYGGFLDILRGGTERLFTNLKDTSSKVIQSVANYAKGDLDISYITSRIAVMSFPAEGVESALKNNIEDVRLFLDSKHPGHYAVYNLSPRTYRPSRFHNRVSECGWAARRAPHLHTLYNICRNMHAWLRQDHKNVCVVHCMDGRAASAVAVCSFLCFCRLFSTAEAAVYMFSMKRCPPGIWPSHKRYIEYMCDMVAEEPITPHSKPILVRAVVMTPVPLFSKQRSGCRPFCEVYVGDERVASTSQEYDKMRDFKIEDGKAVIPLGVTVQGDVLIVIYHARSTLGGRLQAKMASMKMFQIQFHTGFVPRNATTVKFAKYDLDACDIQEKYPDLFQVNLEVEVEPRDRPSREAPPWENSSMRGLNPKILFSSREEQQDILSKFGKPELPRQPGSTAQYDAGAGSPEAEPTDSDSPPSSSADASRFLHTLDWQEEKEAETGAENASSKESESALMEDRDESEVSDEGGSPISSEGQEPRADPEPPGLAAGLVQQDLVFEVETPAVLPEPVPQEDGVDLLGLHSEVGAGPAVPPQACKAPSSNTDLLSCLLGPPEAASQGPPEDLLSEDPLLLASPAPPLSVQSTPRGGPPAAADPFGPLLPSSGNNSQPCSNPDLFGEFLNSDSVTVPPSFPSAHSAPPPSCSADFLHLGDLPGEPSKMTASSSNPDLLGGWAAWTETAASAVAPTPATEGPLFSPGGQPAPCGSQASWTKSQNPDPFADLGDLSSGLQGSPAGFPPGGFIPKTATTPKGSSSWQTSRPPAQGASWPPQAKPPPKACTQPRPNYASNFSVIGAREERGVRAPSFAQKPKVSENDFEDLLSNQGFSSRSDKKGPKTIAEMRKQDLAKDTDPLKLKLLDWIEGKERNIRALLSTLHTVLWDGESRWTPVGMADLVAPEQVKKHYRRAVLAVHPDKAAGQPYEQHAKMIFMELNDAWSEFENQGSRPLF

Assay [6] deals with Deoxycytidine kinase (Homo sapiens, UniProt P27707).
Deoxycytidine kinase, sequence (P27707 whole entry): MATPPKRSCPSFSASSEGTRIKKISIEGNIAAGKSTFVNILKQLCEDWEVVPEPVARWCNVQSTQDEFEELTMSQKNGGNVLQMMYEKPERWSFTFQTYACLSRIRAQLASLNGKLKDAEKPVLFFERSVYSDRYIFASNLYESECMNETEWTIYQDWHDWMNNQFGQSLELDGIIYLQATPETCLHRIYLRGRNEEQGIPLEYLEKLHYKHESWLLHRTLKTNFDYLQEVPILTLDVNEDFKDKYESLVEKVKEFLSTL
Assay [7] has as its target Tyrosine-protein kinase SYK (Homo sapiens, UniProt P43405).
Assay [8] addresses T2, Dynamin-like GTPase OPA1, mitochondrial (Homo sapiens, UniProt O60313).
T2 sequence (O60313 whole entry): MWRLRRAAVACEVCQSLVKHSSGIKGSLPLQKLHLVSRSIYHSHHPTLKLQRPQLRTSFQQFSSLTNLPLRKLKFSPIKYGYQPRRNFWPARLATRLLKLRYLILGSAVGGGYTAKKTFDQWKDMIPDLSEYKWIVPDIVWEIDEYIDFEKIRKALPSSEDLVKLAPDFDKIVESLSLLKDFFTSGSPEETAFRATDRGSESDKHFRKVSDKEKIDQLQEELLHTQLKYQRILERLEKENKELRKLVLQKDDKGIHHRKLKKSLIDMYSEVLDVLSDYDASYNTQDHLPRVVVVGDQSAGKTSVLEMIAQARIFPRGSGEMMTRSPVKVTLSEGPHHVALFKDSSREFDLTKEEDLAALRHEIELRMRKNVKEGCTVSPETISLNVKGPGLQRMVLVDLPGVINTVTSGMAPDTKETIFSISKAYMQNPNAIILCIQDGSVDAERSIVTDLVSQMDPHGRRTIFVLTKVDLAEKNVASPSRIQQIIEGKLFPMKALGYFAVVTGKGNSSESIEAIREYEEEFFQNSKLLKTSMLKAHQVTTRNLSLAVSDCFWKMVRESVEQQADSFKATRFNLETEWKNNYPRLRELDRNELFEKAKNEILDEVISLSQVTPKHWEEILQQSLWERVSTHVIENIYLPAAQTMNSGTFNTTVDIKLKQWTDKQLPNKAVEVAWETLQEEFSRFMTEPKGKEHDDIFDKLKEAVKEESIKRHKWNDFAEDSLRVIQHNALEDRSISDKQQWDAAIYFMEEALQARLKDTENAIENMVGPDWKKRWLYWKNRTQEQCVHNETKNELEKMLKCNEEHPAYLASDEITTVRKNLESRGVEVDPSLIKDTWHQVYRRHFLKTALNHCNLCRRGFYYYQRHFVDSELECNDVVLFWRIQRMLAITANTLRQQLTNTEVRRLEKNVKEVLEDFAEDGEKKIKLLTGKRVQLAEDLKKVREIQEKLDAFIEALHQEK

Assay [9] has as its target NADH dehydrogenase [ubiquinone] 1 alpha subcomplex subunit 13 (Homo sapiens, UniProt Q9P0J0).
In assay [10] the target is Mitotic checkpoint serine/threonine-protein kinase BUB1 (Homo sapiens, UniProt O43683).
Mitotic checkpoint serine/threonine-protein kinase BUB1, sequence (O43683 whole entry): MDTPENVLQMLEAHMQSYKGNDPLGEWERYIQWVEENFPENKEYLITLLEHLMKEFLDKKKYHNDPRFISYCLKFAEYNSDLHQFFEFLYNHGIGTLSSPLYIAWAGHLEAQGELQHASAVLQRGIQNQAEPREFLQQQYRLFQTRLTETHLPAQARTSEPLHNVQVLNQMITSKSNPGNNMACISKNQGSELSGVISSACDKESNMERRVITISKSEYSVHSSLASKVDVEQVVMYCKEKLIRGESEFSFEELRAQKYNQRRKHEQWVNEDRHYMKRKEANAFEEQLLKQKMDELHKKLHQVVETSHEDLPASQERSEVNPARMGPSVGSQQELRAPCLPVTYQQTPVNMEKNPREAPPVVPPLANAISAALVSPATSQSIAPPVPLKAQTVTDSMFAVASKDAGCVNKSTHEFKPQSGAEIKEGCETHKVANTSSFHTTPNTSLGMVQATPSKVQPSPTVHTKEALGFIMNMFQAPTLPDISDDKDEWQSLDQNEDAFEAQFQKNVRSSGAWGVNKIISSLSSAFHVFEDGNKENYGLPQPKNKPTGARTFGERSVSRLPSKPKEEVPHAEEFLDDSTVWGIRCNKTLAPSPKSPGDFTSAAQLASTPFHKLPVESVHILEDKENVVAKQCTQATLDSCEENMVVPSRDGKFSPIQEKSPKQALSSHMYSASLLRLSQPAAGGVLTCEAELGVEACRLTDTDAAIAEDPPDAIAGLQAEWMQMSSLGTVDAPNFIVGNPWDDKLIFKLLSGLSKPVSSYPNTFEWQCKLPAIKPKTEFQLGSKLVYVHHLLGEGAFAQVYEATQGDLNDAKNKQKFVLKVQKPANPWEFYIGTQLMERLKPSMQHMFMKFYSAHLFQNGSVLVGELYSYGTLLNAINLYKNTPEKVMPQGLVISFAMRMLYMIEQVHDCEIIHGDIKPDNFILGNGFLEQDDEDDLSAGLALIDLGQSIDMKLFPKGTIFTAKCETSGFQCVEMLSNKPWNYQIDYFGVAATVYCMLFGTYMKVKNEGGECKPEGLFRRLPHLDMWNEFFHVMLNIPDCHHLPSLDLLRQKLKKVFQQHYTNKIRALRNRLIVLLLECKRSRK
Assay [11] addresses Tyrosine-protein kinase JAK1 (Homo sapiens, UniProt P23458).
The target in assay [12] is Serine/threonine-protein kinase 26 (Homo sapiens, UniProt Q9P289).
Serine/threonine-protein kinase 26, sequence (Q9P289 whole entry): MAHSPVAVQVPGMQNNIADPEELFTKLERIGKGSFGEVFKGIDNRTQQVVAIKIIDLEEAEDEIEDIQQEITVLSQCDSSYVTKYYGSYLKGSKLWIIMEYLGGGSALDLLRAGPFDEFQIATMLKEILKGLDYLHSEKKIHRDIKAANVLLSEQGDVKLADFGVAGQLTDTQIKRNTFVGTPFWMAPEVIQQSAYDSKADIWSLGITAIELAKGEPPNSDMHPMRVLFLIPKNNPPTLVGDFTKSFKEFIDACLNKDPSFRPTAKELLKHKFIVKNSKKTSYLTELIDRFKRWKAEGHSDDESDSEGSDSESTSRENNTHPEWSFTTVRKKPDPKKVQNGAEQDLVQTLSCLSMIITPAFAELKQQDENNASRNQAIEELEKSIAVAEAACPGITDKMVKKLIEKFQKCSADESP
The target of assay [13] is Ephrin type-A receptor 7 (Homo sapiens, UniProt Q15375).
The target of assay [14] is RAC-alpha serine/threonine-protein kinase (Homo sapiens, UniProt P31749).

Structures are written as SMILES. Activity calls are given as the source filed them. Some results are limits rather than exact numbers.
Also: in the data inactive means no Kd found up to 30 µM.

Serine/threonine-protein kinase MRCK beta, sequence (Q9Y5S2 whole entry): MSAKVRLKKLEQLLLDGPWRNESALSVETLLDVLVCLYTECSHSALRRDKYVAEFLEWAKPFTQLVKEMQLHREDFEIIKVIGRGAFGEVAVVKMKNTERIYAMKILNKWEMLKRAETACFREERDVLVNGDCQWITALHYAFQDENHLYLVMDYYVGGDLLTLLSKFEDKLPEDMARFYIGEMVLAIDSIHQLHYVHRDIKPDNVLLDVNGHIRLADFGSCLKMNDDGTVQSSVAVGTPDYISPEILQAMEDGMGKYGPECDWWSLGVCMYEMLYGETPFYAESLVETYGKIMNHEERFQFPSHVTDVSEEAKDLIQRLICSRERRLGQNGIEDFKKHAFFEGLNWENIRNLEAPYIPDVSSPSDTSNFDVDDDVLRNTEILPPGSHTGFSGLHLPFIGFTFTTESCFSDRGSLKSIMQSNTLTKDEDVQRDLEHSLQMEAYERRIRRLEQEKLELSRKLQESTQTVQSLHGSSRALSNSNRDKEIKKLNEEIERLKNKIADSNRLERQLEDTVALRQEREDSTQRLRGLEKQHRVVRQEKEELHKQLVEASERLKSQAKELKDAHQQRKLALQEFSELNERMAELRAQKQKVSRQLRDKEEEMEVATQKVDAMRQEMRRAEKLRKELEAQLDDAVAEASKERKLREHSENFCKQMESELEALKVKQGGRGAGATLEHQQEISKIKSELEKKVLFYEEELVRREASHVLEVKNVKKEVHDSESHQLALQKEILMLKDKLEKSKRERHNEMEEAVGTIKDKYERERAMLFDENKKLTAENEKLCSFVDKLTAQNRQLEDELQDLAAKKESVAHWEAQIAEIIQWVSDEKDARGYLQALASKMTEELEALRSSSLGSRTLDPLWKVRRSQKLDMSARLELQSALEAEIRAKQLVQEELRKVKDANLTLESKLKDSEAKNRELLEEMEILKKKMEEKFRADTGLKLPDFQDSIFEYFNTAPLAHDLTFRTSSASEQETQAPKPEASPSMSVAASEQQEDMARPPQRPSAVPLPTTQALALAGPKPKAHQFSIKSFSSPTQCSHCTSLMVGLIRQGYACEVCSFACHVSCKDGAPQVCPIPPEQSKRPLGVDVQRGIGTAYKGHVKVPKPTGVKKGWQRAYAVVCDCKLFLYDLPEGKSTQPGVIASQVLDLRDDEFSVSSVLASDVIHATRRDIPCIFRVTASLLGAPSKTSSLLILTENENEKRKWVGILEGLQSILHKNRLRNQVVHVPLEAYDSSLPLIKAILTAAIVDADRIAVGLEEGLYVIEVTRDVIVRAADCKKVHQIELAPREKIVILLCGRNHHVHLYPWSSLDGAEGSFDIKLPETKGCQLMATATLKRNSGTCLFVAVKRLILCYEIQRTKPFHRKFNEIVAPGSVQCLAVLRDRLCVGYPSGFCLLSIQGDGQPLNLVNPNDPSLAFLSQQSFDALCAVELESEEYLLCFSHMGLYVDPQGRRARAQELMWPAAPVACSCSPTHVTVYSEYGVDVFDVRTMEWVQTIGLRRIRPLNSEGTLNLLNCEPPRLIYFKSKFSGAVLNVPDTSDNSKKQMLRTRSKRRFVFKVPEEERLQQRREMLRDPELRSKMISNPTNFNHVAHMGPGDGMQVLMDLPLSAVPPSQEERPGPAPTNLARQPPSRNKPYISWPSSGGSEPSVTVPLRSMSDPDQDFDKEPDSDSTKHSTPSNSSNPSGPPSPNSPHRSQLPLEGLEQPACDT
Protein-tyrosine kinase 2-beta, sequence (Q14289 whole entry): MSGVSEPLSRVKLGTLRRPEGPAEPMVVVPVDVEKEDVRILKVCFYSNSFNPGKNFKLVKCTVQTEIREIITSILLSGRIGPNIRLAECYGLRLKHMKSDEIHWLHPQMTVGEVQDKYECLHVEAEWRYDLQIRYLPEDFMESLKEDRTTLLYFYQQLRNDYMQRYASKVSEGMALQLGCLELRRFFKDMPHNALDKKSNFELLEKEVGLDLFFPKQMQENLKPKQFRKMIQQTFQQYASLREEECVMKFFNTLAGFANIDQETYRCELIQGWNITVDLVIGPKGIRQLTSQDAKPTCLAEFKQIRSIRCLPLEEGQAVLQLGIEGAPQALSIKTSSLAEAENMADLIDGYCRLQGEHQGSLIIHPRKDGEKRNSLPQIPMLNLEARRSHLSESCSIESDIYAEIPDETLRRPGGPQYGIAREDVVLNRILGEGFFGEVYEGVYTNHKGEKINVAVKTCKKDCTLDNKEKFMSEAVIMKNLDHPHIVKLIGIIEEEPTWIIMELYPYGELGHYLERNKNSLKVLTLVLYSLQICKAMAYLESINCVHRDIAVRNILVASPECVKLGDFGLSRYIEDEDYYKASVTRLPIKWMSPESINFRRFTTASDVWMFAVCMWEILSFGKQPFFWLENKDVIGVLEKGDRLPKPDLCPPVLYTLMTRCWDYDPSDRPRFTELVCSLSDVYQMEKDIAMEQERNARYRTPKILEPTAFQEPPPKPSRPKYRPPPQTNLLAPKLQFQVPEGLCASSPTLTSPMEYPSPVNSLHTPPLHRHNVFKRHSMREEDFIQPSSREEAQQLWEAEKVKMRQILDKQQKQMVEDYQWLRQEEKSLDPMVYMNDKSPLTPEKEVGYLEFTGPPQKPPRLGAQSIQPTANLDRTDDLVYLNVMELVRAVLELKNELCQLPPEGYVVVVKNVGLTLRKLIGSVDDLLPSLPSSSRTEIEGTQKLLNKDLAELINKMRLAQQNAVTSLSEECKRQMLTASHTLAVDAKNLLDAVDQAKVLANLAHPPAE

`Cn1c(=O)n(-c2ccc(C(C)(C)C#N)cc2)c2c3cc(-c4cnc5ccccc5c4)ccc3ncc21` [DACTOLISIB]: the Kd in assay [1], in assay [2], in assay [3], in assay [4], in assay [5] and in [6] was > 30 µM (inactive) in each case. The Kd in assay [7], in assay [8], in [9], in assay [10], in assay [11] and in assay [12] was > 30 µM (inactive) in each case. Also, in assay [13], the Kd was > 30 µM (inactive).
As for `C[C@@]1(C(=O)Nc2ccc(F)nc2)CCCN1c1nc(Nc2cc(C3CC3)n[nH]2)c2cccn2n1` [BMS-754807], the Kd in [3], in assay [4], in assay [6] and in assay [8] was > 30 µM (inactive) in each case.
Regarding `COc1cc2c(Oc3ccc4[nH]c(C)cc4c3F)ncnc2cc1OCCCN1CCCC1` [CEDIRANIB], the Kd in assay [3], in assay [4], in assay [6], in assay [8], in [9] and in assay [10] was > 30 µM (inactive) throughout.
Take `Cn1cnc2c(F)c(Nc3ccc(Br)cc3Cl)c(C(=O)NOCCO)cc21` [SELUMETINIB]: the Kd in [3], in assay [4], in [6], in assay [8], in assay [9] and in assay [10] was > 30 µM (inactive) throughout.
Turning to `COc1cc2c(N3CCN(C(=O)Nc4ccc(OC(C)C)cc4)CC3)ncnc2cc1OCCCN1CCCCC1` [TANDUTINIB], the Kd in assay [3], in assay [4], in assay [6], in assay [8], in assay [9] and in assay [10] was > 30 µM (inactive) throughout.
As to `CC1(C)CNc2cc(NC(=O)c3cccnc3NCc3ccncc3)ccc21` [MOTESANIB], the Kd in [3] was > 30 µM (inactive); in assay [4], 1.04 µM (active); in assay [6], > 30 µM (inactive); in [8], > 30 µM (inactive); in [9], > 30 µM (inactive); in assay [10], > 30 µM (inactive).
As to `COc1cc(Nc2ncc(F)c(Nc3ccc4c(n3)N(COP(=O)(O)O)C(=O)C(C)(C)O4)n2)cc(OC)c1OC` [FOSTAMATINIB], the Kd in [1], in assay [2], in assay [3], in assay [4], in assay [5] and in assay [6] was > 30 µM (inactive) throughout. Also, the Kd in assay [14], in assay [8], in assay [9], in assay [10], in assay [11] and in [12] was > 30 µM (inactive) in each case. The Kd in assay [13] was > 30 µM (inactive).
In the case of `C=CCn1c(=O)c2cnc(Nc3ccc(N4CCN(C)CC4)cc3)nc2n1-c1cccc(C(C)(C)O)n1` [ADAVOSERTIB], the Kd is > 30 µM (inactive) in assay [1]; > 30 µM (inactive) in assay [2]; > 30 µM (inactive) in assay [3]; > 30 µM (inactive) in [4]; 0.418 µM (active) in assay [5]; > 30 µM (inactive) in assay [6]. Further, the Kd in [14], in [8], in [9], in [10], in assay [11] and in [12] was > 30 µM (inactive) in each case. For the same compound, the Kd in [13] is > 30 µM (inactive).
For the compound `CN(C)C/C=C/C(=O)Nc1cc2c(Nc3ccc(F)c(Cl)c3)ncnc2cc1O[C@H]1CCOC1` [AFATINIB], the Kd in [3], in [4], in [6], in [8], in assay [9] and in [10] was > 30 µM (inactive) throughout.
In the case of `O=S(=O)(c1cccc2cnccc12)N1CCCNCC1` [FASUDIL], the Kd in assay [1], in assay [2], in assay [3], in assay [4], in assay [5] and in [6] was > 30 µM (inactive) each time. Further, the Kd in assay [7], in [8], in assay [9], in assay [10], in [11] and in assay [12] was > 30 µM (inactive) throughout. Further, the Kd in [13] was > 30 µM (inactive).
`C[C@]1(O)C[C@@H](c2nc(-c3ccc4ccc(-c5ccccc5)nc4c3)c3c(N)nccn32)C1` [LINSITINIB]: the Kd in assay [1] was > 30 µM (inactive); in assay [2] it was > 30 µM (inactive); in assay [3], > 30 µM (inactive); in assay [4], 6.05 µM (active); in [5] it was > 30 µM (inactive); in [6] it was > 30 µM (inactive). For the same compound, the Kd in [8], in [9], in assay [10], in assay [11], in [12] and in assay [13] was > 30 µM (inactive) throughout.
